IC50 data for 22 molecules are collected here from patent US20160368919A1, “NOVEL PYRIDINE PYRAZINONES AS BET-FAMILY BROMODOMAIN INHIBITORS” (Pfizer Inc., priority 2015, published 2016).

Each structure is given as a SMILES string.

Assay [1] has as its system LPS-induced IL-6 production in human whole blood. In words: IL-6 human whole blood (HWB) assay, LPS-stimulated, HTRF detection. In kind it is cell-based. The conditions noted are these: 1 ng/ml LPS, 4 hours. As for the experimental part:
Compound effect on IL-6 production was determined using lipopolysaccharide (LPS)-stimulated human whole blood and an HTRF (Homogeneous Time-Resolved Fluorescence) IL-6 detection kit (Human IL6 HTRF Assay CisBio 62IL6PEC). HWB was collected by venous puncture from healthy donors, transferred to a 50 ml polypropylene tube containing sodium heparin (14.3 units per mL of HWB) and then placed in a 37° C. water bath until use. To start the assay, 80 μL of heparin-treated HWB containing 1 ng/ml of LPS (equivalent to LPS ˜EC80 with regard to stimulation of IL-6 production in HWB under these assay conditions) was added to each well of a 384-well, sterile, endotoxin-free, polypropylene plate (Greiner 781281) containing 160 nL of various concentrations of test compound (each plate also contained positive and negative control wells to define the upper and lower limits of the assay signal). The plate was then placed in a thermoshaker incubator set to 370C (Boekel 270440). The final assay concentration (FAC) of test compound ranged from 60 to 0.0006 μM and the FAC of DMSO was 0.2%. After 4 hours, the assay plate was removed from the incubator and centrifuged at 700×g for 10 minutes. 5 μL of the resulting upper plasma layer was removed from each well and diluted 1:2 with 1×Dulbecco's phosphate buffered saline (DPBS). 5 μL of this diluted plasma was then transferred to a white 384-well low volume assay plate (Greiner 784080) containing 5 μL of combined anti-IL-6-Cryptate and anti-IL-6-XL665 detection antibodies (per manufacturer's protocol). The plate was then sealed with a Top Seal (Perkin Elmer 6005185) and incubated at room temperature (RT, 20° C.). After 16-18 hrs (overnight), the HTRF assay signal was read on an Envision 2103 plate reader using a Lance Delfia Dual/Bias mirror TRF laser excitation and emission was measured at 665 nm and 615 nm respectively. The percent (%) effect was calculated for each concentration of test compound and was relative to the amount of HTRF signal produced by the positive and negative control wells contained within each assay plate. The concentrations and % effect values for test compounds were plotted versus each other with a proprietary curve fitting program using a four-parameter logistic dose response equation and the concentration of compound required for 50% effect (IC50) was determined.

In assay [2] the target is T1, BRD4 BD1 (Homo sapiens, UniProt O60885).
T1 construct: His-tagged BRD4 BD1 (44-160); made in house
Put plainly: BRD4 BD1 Fluorescence Polarization (FP) competition binding assay. Conditions: BRD4 BD1 40 nM, probe PFI-411FP 2 nM. How it is done:
Compound binding to BRD4 BD1 was assessed with a FP competition binding assay. […] All assay components were diluted in 50 mM HEPES pH 7.4 containing 0.08% bovine serum albumin (assay buffer). To start the assay, 8 μL of BRD4 BD1 was added to each well of a low volume 384-well black flat bottom microtiter plate (Corning 3820) containing 4 μl of various concentrations of test compound (each plate also contained positive and negative control wells to define the upper and lower limits of the assay signal). After addition of BRD4 BD1, the assay plate was incubated at room temperature (RT, 20° C.). After 15 minutes, 4 μL of PFI-411FP was added to each well and the assay plate was placed in the dark at RT. The final assay concentration (FAC) of PFI-411FP was 2 nM, the FAC of BRD4 BD1 was 40 nM, the FAC of test compound ranged from 120 to 0.0012 μM and the FAC of DMSO was 0.4%. After 60 min, polarization values were measured with an Envision 2103 multilabel reader (Perkin Elmer) using a Cy5 dual enhanced mirror and excitation at 620 nm and emission at 688 nm. The percent (%) effect was calculated for each concentration of test compound and was relative to the amount of polarization signal produced by the positive and negative control wells contained within each assay plate. The concentrations and % effect values for test compounds were plotted versus each other with a proprietary curve fitting program using a four-parameter logistic dose response equation and the concentration of compound required for 50% effect (IC50) was determined. The Ki values of competitive inhibitors were calculated using the equation described by Nikolovska-Coleska et al. (Development and optimization of a binding assay for the XIAP BIR3 domain using fluorescence polarization. Analytical Biochemistry (2004) 332: 261-273).

For `COc1ccccc1[C@H](C)n1c(=O)c(NCCC(=O)O)nc2ccc(N(C)C(C)=O)nc21` [Example 1, N-{6-[acetyl(methyl)amino]-4-[(1S)-1-(2-methoxyphenyl)ethyl]-3-oxo-3,4-dihydropyrido[2,3-b]pyrazin-2-yl}-beta-alanine], the IC50 in assay [1] is 38400 nM; in assay [2], 730 nM.
`CCN(C(C)=O)c1ccc2nc(NCCC(=O)O)c(=O)n([C@@H](C)c3ccccc3OC)c2n1` [Example 2, N-{6-[acetyl(ethyl)amino]-4-[(1S)-1-(2-methoxyphenyl)ethyl]-3-oxo-3,4-dihydropyrido[2,3-b]pyrazin-2-yl}-beta-alanine] showed an IC50 in assay [2] of 2710 nM.
On to `CC[C@@H](c1ccccc1)n1c(=O)c(NCCC(=O)O)nc2ccc(N(C)C(C)=O)nc21` [Example 3, N-{6-[acetyl(methyl)amino]-3-oxo-4-[(1S)-1-phenylpropyl]-3,4-dihydropyrido[2,3-b]pyrazin-2-yl}-beta-alanine], for which the results for the IC50 in assay [1] and in assay [2] were 2050 nM and 117 nM, respectively.
The matching figures for `CC[C@@H](c1ccccc1)n1c(=O)c(NCCC(=O)O)nc2ccc(N(C)C(=O)CO)nc21` [Example 4, N-{6-[(hydroxyacetyl)(methyl)amino]-3-oxo-4-[(1S)-1-phenylpropyl]-3,4-dihydropyrido[2,3-b]pyrazin-2-yl}-beta-alanine]: 14100 nM and 956 nM.
The matching figures for `CNc1nc2ccc(N(C)C(C)=O)nc2n([C@@H](C)c2ccccc2OC)c1=O` [Example 5, N-{4-[(1S)-1-(2-methoxyphenyl)ethyl]-2-(methylamino)-3-oxo-3,4-dihydropyrido[2,3-b]pyrazin-6-yl}-N-methylacetamide]: 1580 nM and 653 nM.
`CC[C@@H](c1ccccc1)n1c(=O)c(NCCC(=O)O)nc2ccc(N(C)C(=O)C(C)C)nc21` [Example 6, N-{6-[methyl(2-methylpropanoyl)amino]-3-oxo-4-[(1S)-1-phenylpropyl]-3,4-dihydropyrido[2,3-b]pyrazin-2-yl}-beta-alanine]: the results for the IC50 in assay [1] and in assay [2] were 1420 nM and 155 nM, respectively.
On to `CCCC(=O)N(C)c1ccc2nc(NCCC(=O)O)c(=O)n([C@@H](CC)c3ccccc3)c2n1` [Example 7, N-{6-[butanoyl(methyl)amino]-3-oxo-4-[(1S)-1-phenylpropyl]-3,4-dihydropyrido[2,3-b]pyrazin-2-yl}-beta-alanine], for which the IC50 in assay [1] was found to be 2390 nM; in assay [2] it was 130 nM.
Regarding `CC[C@@H](c1ccccc1)n1c(=O)c(NCCC(=O)O)nc2ccc(N(C)C(=O)C3CCC3)nc21` [Example 8], the IC50 in assay [1] turned out to be 1800 nM; in assay [2], 122 nM.
The matching figures for `CC[C@@H](c1ccccc1)n1c(=O)c(NCCC(=O)O)nc2ccc(N(C)C(=O)NC)nc21` [Example 9, N-{6-[methyl(methylcarbamoyl)amino]-3-oxo-4-[(1S)-1-phenylpropyl]-3,4-dihydropyrido[2,3-b]pyrazin-2-yl}-beta-alanine]: 3830 nM and 150 nM.
As to `CCC(=O)N(C)c1ccc2nc(NCCC(=O)O)c(=O)n([C@@H](CC)c3ccccn3)c2n1` [Example 11, N-{6-[methyl(propanoyl)amino]-3-oxo-4-[(1S)-1-(pyridin-2-yl)propyl]-3,4-dihydropyrido[2,3-b]pyrazin-2-yl}-beta-alanine], the IC50 was 2680 nM in assay [1] and 251 nM in assay [2].
`CCC(=O)N(C)c1ccc2nc(NCCC(=O)O)c(=O)n([C@@H]3COC[C@H]3c3ccccc3)c2n1` [Example 15, N-{6-[methyl(propanoyl)amino]-3-oxo-4-[(3S,4S)-4-phenyltetrahydrofuran-3-yl]-3,4-dihydropyrido[2,3-b]pyrazin-2-yl}-beta-alanine] had an IC50 in assay [2] of 10200 nM.
`CC[C@H](COC)n1c(=O)c(NCCC(=O)O)nc2ccc(N(C)C(C)=O)nc21` [Example 16, N-{6-[acetyl(methyl)amino]-4-[(2R)-1-methoxybutan-2-yl]-3-oxo-3,4-dihydropyrido[2,3-b]pyrazin-2-yl}-beta-alanine] displayed an IC50 in assay [2] of 3880 nM.
The molecule `CCC(=O)N(C)c1ccc2nc(NCC(=O)NC)c(=O)n([C@H](CC)COC)c2n1` [Example 18, N-(4-[(2R)-1-methoxybutan-2-yl]-2-{[2-(methylamino)-2-oxoethyl]amino}-3-oxo-3,4-dihydropyrido[2,3-b]pyrazin-6-yl)-N-methylpropanamide] gave an IC50 in assay [2] of 4190 nM.
Take `CCC(=O)N(C)c1ccc2nc(NCC(=O)NC)c(=O)n(C(COC)COC)c2n1` [Example 19, N-(4-(1,3-dimethoxypropan-2-yl)-2-((2-(methylamino)-2-oxoethyl)amino)-3-oxo-3,4-dihydropyrido[2,3-b]pyrazin-6-yl)-N-methylpropionamide]: the IC50 in assay [2] worked out at 4030 nM. The IC50 values of the last two molecules are within 1.5-fold of each other.
In turn, `CCC(=O)N(C)c1ccc2nc(NCCC(=O)O)c(=O)n(C3(C4CCCC4)CC3)c2n1` [Example 24, N-{4-(1-cyclopentylcyclopropyl)-6-[methyl(propanoyl)amino]-3-oxo-3,4-dihdropyrido[2,3-b]pyrazin-2-yl}-beta-alanine] came in with an IC50 in assay [2] of 1580 nM. Against the preceding molecule, the IC50 is about 2.6-fold lower.
In assay [2], `CC[C@@H](c1ccccc1)n1c(=O)c(NCCC(=O)O)nc2ccc(N(C)C(=O)C3CC(C)(C)C3)nc21` [Example 25, N-(6-{[(3,3-dimethylcyclobutyl)carbonyl](methyl)amino}-3-oxo-4-[(1S)-1-phenylpropyl]-3,4-dihydropyrido[2,3-b]pyrazin-2-yl)-beta-alanine] registered an IC50 of 6370 nM.
On to `CC[C@@H](c1ccccc1)n1c(=O)c(NCCC(=O)O)nc2ccc(N(C)C(=O)C3CC(F)(F)C3)nc21` [Example 26, N-(6-{[(3,3-difluorocyclobutyl)carbonyl](methyl)amino}-3-oxo-4-[(1S)-1-phenylpropyl]-3,4-dihydropyrido[2,3-b]pyrazin-2-yl)-beta-alanine], for which, in assay [2], the IC50 came out at 7590 nM.
In assay [2], `CC[C@@H](c1ccccc1)n1c(=O)c(NCCC(=O)O)nc2ccc(N(C)C(=O)C3COC3)nc21` [Example 27, N-{6-[methyl(oxetan-3-ylcarbonyl)amino]-3-oxo-4-[(1S)-1-phenylpropyl]-3,4-dihydropyrido[2,3-b]pyrazin-2-yl}-beta-alanine] had an IC50 of 1500 nM.
In the case of `CCOc1ccccc1Cn1c(=O)c(NCCN2CCOCC2)nc2ccc(-c3c(C)noc3C)nc21` [Example 36, 6-(3,5-dimethyl-1,2-oxazol-4-yl)-4-(2-ethoxybenzyl)-2-{[2-(morpholin-4-yl)ethyl]amino}pyrido[2,3-b]pyrazin-3(4H)-one], the IC50 in assay [2] was found to be 2480 nM. This IC50 is about 1.7-fold higher than that of the molecule before.
Turning to `Cc1noc(C)c1-c1ccc2nc(NCCN3CCOCC3)c(=O)n(Cc3ccccc3)c2n1` [Example 37, 4-benzyl-6-(3,5-dimethyl-1,2-oxazol-4-yl)-2-{[2-(morpholin-4-yl)ethyl]amino}pyrido[2,3-b]pyrazin-3(4H)-one], the IC50 in assay [2] amounted to 474 nM.
On to `CC[C@H](c1ccccc1)n1c(=O)c(NCCN2CCOCC2)nc2ccc(-c3c(C)noc3C)nc21` [Example 38, 6-(3,5-dimethyl-1,2-oxazol-4-yl)-2-{[2-(morpholin-4-yl)ethyl]amino}-4-[(1R)-1-phenylpropyl]pyrido[2,3-b]pyrazin-3(4H)-one], for which, in assay [2], the IC50 turned out to be 532 nM.
`Cc1noc(C)c1-c1ccc2nc(NCCC(=O)O)c(=O)n(C3CCOCC3)c2n1` [Example 49, N-[6-(3,5-dimethyl-1,2-oxazol-4-yl)-3-oxo-4-(tetrahydro-2H-pyran-4-yl)-3,4-dihydropyrido[2,3-b]pyrazin-2-yl]-beta-alanine] returned an IC50 in assay [2] of 4870 nM.
